According to ChEMBL document CHEMBL1649377, “Synthesis, biological assessment and molecular modeling of new dihydroquinoline-3-carboxamides and dihydroquinoline-3-carbohydrazide derivatives as cholinesterase inhibitors, and Ca channel antagonists” (Eur J Med Chem, 2011):

Tests used:
[1] = molecular target: Cholinesterase (Equus caballus, UniProt P81908); experiment: Inhibition of horse serum BChE after 15 mins by Ellman's method
[2] = molecular target: Acetylcholinesterase (Electrophorus electricus, UniProt O42275)
Acetylcholinesterase, sequence (O42275 whole entry): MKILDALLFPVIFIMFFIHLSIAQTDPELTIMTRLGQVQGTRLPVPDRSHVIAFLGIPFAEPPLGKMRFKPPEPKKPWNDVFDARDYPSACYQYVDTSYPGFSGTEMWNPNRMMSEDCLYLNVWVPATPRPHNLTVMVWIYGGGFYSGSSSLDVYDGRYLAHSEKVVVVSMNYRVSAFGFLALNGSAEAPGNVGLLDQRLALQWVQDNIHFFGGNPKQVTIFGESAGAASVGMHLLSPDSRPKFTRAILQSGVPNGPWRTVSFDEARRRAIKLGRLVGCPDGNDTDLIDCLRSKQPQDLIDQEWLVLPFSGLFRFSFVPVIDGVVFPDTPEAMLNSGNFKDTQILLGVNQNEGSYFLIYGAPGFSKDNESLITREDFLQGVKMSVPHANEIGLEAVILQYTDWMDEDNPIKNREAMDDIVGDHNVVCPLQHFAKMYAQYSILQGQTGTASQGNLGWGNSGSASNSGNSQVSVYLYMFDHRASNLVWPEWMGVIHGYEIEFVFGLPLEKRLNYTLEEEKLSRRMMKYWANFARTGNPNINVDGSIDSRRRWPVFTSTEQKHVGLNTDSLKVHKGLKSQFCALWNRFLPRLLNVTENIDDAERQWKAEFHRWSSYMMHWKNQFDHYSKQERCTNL
Description: Inhibition of electric eel AChE after 15 mins by Ellman's method

Cholinesterase, sequence (P81908 whole entry): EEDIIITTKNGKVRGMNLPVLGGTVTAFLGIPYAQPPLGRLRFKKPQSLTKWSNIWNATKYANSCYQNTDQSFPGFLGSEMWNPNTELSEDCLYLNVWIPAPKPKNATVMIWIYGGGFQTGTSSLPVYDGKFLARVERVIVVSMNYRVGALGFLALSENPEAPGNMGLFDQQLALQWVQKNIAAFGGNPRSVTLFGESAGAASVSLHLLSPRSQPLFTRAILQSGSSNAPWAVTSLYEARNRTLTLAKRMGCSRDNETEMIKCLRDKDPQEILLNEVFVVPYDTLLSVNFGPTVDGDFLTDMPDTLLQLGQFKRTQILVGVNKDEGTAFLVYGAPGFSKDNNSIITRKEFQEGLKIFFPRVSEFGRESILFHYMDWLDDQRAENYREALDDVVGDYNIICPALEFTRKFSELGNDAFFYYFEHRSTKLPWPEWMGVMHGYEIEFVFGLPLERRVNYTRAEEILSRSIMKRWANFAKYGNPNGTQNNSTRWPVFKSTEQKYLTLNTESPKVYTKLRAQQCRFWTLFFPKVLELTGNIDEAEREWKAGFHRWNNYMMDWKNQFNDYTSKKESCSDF

Structure (SMILES): CCN1C(=O)NC2C(=C1C)C(=O)Nc1c2cccc1[N+](=O)[O-] (racemic)
- IC50 [1]: > 30 µM
- IC50 [2]: 6 µM

Structure (SMILES): CC1=C2C(=O)Nc3c(cccc3[N+](=O)[O-])C2NC(=O)N1C (racemic)
- IC50 [1]: > 30 µM
- IC50 [2]: 8 µM

Structure (SMILES): O=C(N/N=C/c1ccc(O)cc1O)c1c(O)c2c(Cl)cccc2[nH]c1=O
- IC50 [1]: > 30 µM
- IC50 [2]: 12 µM

Structure (SMILES): Cn1c(=O)c(C(=O)NCCNCCNCCN)c(O)c2ccccc21
- IC50 [1]: 5.2 µM
- IC50 [2]: > 30 µM

Structure (SMILES): NCCNCCNCCNC(=O)c1c(O)c2ccccc2[nH]c1=O
- IC50 [1]: 19 µM
- IC50 [2]: 13 µM
